Source: patent US6448229B2, “Gamma secretase inhibitors” (Merck Sharp & Dohme Ltd., priority 2000, dated 2002)

Tested on: Notch signalling
Assay: Xenopus developmental assay for Notch activity (tail bud formation)
Assay type: in vivo, Xenopus laevis
Settings: Xenopus embryos cultured with compound from stage 15 to stage 40
Method: The following assay was used to determine the effect of compounds on Notch signalling.
Xenopus embryos were cultured in 1/10 NAM [Beck & Slack, Development, 126, 1611-1620, 1999] supplemented with protease inhibitors ([…] stock in DMSO) from stage 15 [P. D. Nieuwkoop and J. Faber, Normal table of Xenopus laevis, Daudin 1967, Reprinted Garland 1994] (24 hours), to stage 40 (3 days). Control siblings were incubated in 1/10 NAM containing 0.05% DMSO. At 3 days they were fixed in batches of 20 and measured using a graduated eyepiece on a Wild dissecting microscope set to 25×. Each tadpole was measured from head to proctodaeum (head and trunk) and from proctodaeum to tail tip (tail). Tail buds were extirpated at stage 30 and cultured for 24 hours as described previously [Tucker & Slack, Development, 121, 249-262, 1995]. Somites were detected by staining with monoclonal antibody 12/101 [Kintner & Brockes, Nature, 308, 67-69, 1984], as described elsewhere [Tucker & Slack, 1995]. In situ hybridisation for Xhox3 has been previously described [Beck & Slack, Mech. Dev., 72, 41-52, 1998].

Q: How did the “inhibition of tail bud formation” value turn out when `CC(NC(=O)Cc1cc(F)cc(F)c1)C(=O)NC(C(=O)NCC1CN(c2ccccc2)CCO1)c1ccccc1` (mixture of isomers) [Example 1, 2-[2-(3,5-Difluorophenyl)acetylamino]-N-{phenyl[(4-phenylmorpholin-2-ylmethyl)carbamoyl]methyl}propionamide] was run?
A: did not significantly inhibit tail bud formation
